The values below are quoted from earlier work in US20100092398A1, “ANTIMICROBIAL COMPOSITIONS AND APPLICATIONS THEREFORE” (priority 2004, published 2010).

For the series the following is noted: range given for terpinen-4-ol.

For the compound `CC1=CCC(O)(C(C)C)CC1` (stereo not shown) [terpinen-4-ol], the “Relative density @ 20° C.” value was 0.930 to 0.936 g/mL.
